The subject of data set [1] is SMN2 mRNA. Description: Splicing RT-qPCR panel, SMN2 canonical junction (CJ) mRNA. Particulars: Homo sapiens, read-out: SMN2 CJ (decrease in CJ mRNA levels, IC50). It is filed as cell-based, human. The method, boiled down: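 A673 cells (DMEM, 10% FBS) or K562 cells (IMDM, 10% FBS) treated 24 h at 37 °C with an 11-point 3-fold dilution, top 10 uM, DMSO ≤0.25%. Canonical-junction mRNA quantified in lysates by RT-qPCR, normalised to GAPDH, GUSB or PPIA and to DMSO (2^−ΔΔCt), then converted to % response.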
A general note: Real-time PCR tracks product formation cycle by cycle.

Data set [2] deals with HiBiT-tagged MYB protein. Description: HiBiT protein abundance assay, MYB (K562 HiBiT knock-in). In kind it is cell-based, human. To be noted: HiBiT knock-in cells, 24 hours. The protocol:
(§1) Compounds described herein were used to screen for effects on quantitative protein abundance using a HiBit assay system (Promega). Quantitative protein abundance was determined by measuring the protein levels of HiBit-tagged protein targets expressed in cell culture via luminescence using the Nano-Glo HiBiT Lytic Detection System, which uses a split complementation assay format to reconstitute NanoBiT enzyme to generate a luminescent signal. A protein abundance assay was developed such that endogenous protein targets could be modified with the HiBiT peptide tag and their abundance could be assessed after compound treatment. Briefly, K562 cell lines containing a HiBiT-modification were treated with various compounds described herein (e.g., compounds of Formulas (I), or (II)). After treatment for 24 hours, the protein abundance of a specific target was determined by measuring luminescence.
(§2) • Promega Nano-Glo HiBiT Lytic Detection System (cat #N3030) • Corning 384-well TC-treated microplates (cat #3570)
(§3) Cells were maintained in IMDM with 10% FBS. Before the assay, cells were diluted with […] growth media (IMDM+1% FBS media) and were seeded in a 384-well plate at a density of 10000 cells/well (for each cell line listed in Table 6). Each compound was prepared as a 10-point 3-old serial dilution in DMSO with the top dose at a final concentration of 10 μM in the well. Unmodified K562 cells were added at the previously specified density with DMSO to serve as an assay baseline and positive control (PC) and DMSO only with the respective modified cell lines was added to the negative control (NC) columns. Final DMSO concentration was kept at or below 0.25%. Treated cell plates were placed in an incubator at 37° C. with 5% CO2 for 24 hours. After 24 hours, 25 μL of Complete HiBit Lytic reagent was added to each well at room temperature (e.g. one plate requiring 10 ml Lytic Buffer, 100 μL LgBiT Protein, 200 μL Lytic Substrate), shaken for 5 minutes at 600 RPM, then left to sit for 10 minutes for signal to stabilize before reading on a Spark Cyto plate reader (Tecan) with a 500 ms measurement time.
(§4) To determine compound effects on protein abundance of each target in Table 6, the percent response for each respective cell line was calculated at each compound concentration as follows:
(§5) For the normalized response at each concentration, a four-parameter logistical regression was fit to the data and the response was interpolated at the 50% value to determine a concentration for protein abundance at 50% (IC50) the untreated control.
For orientation: HiBiT is a short tag that completes a luciferase, so light tracks the accessible tagged protein.

The test system of data set [3] is HiBiT-tagged HTT protein. Description: HiBiT protein abundance assay, HTT (K562 HiBiT knock-in). It is filed as cell-based, human. Particulars: HiBiT knock-in cells, 24 hours. How it is done:
as §1, §2, §3, §4, §5

Data set [4] relates to Target C. In words: HiBiT protein abundance assay, Target C (K562 HiBiT knock-in). It is filed as cell-based, human. To be noted: HiBiT knock-in cells, 24 hours. The protocol: as §3, §4, §5
In data set [5] the test system is K562 cells. In words: Cell viability, Cell Titer Glo 2.0 assay, K562. Particulars: 72 hours. Background: Cellular ATP, detected with luciferase, serves as a proxy for viable cell number.

Where a name gives a salt, the structure may show the parent alone. A value given as a limit tells only on which side of the number the result lay.

For `CCNC1CCN(c2cnc3nc(-c4cc5cn(C)nc5c(C)c4O)ccc3c2)C1` (stereo not drawn) [Compound 122, 5-{6-[3-(ethylamino)pyrrolidin-1-yl]-1,8-naphthyridin-2-yl}-2,7-dimethylindazol-6-ol], the IC50 in data set [1], in data set [2], in data set [3] and in data set [4] was under 100 nM throughout. In addition, in data set [5], the “Effect on Cell Viability, K562” value is “A (<100 nM)”.
For `CCN[C@@H]1CCN(c2cnc3nc(-c4cc5cn(C)nc5c(C)c4O)ccc3c2)C1` [Compound 124], the IC50 in data set [1], in data set [2], in data set [3] and in data set [4] was under 100 nM throughout. Also, the “Effect on Cell Viability, K562” value in data set [5] is on record as “A (<100 nM)”.
As for `CN[C@H]1CN(c2cnc3nc(-c4cc5cn(C)nc5c(C)c4O)ccc3c2)C[C@H]1C` [Compound 125, 2,7-dimethyl-5-{6-[(3R,4R)-3-methyl-4-(methylamino)379pyrrolidine-1-yl]-1,8-naphthyridin-2-yl}indazol-6-ol], the IC50 (in general, the concentration needed to halve the response being measured) in data set [1] was under 100 nM; in data set [2], under 100 nM; in data set [3], under 100 nM; in data set [4], 100 to 1000 nM. Besides, the “Effect on Cell Viability, K562” value in data set [5] was “A (<100 nM)”.
With `CN[C@@H]1CN(c2cnc3nc(-c4cc5cn(C)nc5c(C)c4O)ccc3c2)C[C@H]1C` [Compound 126, 2,7-dimethyl-5-{6-[(3R,4S)-3-methyl-4-(methylamino)382pyrrolidine-1-yl]-1,8-naphthyridin-2-yl}indazol-6-ol], the IC50 in data set [1] is under 100 nM; in data set [2], 100 to 1000 nM; in data set [3] it was 100 to 1000 nM; in data set [4], 1000 to 10000 nM. Moreover, the “Effect on Cell Viability, K562” value in data set [5] is reported as “B (100-1000 nM)”.
Turning to `CN[C@H]1CN(c2cnc3nc(-c4cc5cn(C)nc5c(C)c4O)ccc3c2)C[C@@H]1C` [Compound 127, 2,7-dimethyl-5-{6-[(3S,4R)-3-methyl-4-(methylamino)384pyrrolidine-1-yl]-1,8-naphthyridin-2-yl}indazol-6-ol], the IC50 in data set [1] was under 100 nM; in data set [2] it was under 100 nM; in data set [3], under 100 nM; in data set [4] it was 100 to 1000 nM. Besides, in data set [5], the “Effect on Cell Viability, K562” value is given as “A (<100 nM)”.
`CN[C@@H]1CN(c2cnc3nc(-c4cc5cn(C)nc5c(C)c4O)ccc3c2)C[C@@H]1C` [Compound 128]: the IC50 in data set [1] is under 100 nM; in data set [2], under 100 nM; in data set [3], 100 to 1000 nM; in data set [4], 100 to 1000 nM. Moreover, the “Effect on Cell Viability, K562” value in data set [5] is reported as “A (<100 nM)”.
Regarding `CN[C@H]1CN(c2cnc3nc(-c4cc5cn(C)nc5c(C)c4O)ccc3c2)C[C@H]1F` [Compound 129, 5-{6-[(3R,4S)-3-fluoro-4-(methylamino)pyrrolidin-1-yl]-1,8-naphthyridin-2-yl}-2,7-dimethylindazol-6-ol], the IC50 in data set [1] was under 100 nM; in data set [2], 100 to 1000 nM; in data set [3], 100 to 1000 nM; in data set [4], 100 to 1000 nM. Besides, in data set [5], the “Effect on Cell Viability, K562” value is “B (100-1000 nM)”.
For the compound `CN[C@@H]1CN(c2cnc3nc(-c4cc5cn(C)nc5c(C)c4O)ccc3c2)C[C@@H]1F` [Compound 132, 5-{6-[(3S,4R)-3-fluoro-4-(methylamino)pyrrolidin-1-yl]-1,8-naphthyridin-2-yl}-2,7-dimethylindazol-6-ol], the IC50 in data set [1] is under 100 nM; in data set [2], under 100 nM; in data set [3], 100 to 1000 nM; in data set [4] it was 100 to 1000 nM. In addition, in data set [5], the “Effect on Cell Viability, K562” value is “B (100-1000 nM)”.
As to `Cn1cc2cc(-c3cnc4nc(N5CCC(NC(C)(C)C)C5)ccc4c3)c(O)cc2n1` (stereo not drawn) [Compound 133, 5-{7-[3-(tert-butylamino)pyrrolidin-1-yl]-1,8-naphthyridin-3-yl}-2-methylindazol-6-ol], the IC50 in data set [1] is over 10000 nM; in data set [2], 1000 to 10000 nM; in data set [3] it was 100 to 1000 nM; in data set [4], 1000 to 10000 nM. Also, the “Effect on Cell Viability, K562” value in data set [5] is recorded as “D (greater than 10 μM)”.
For `Cn1cc2cc(-c3ccc4cc(N5CCC(NC(C)(C)C)C5)cnc4n3)c(O)cc2n1` (stereo not drawn) [Compound 134, 5-{6-[3-(tert-butylamino)pyrrolidin-1-yl]-1,8-naphthyridin-2-yl}-2-methylindazol-6-ol hydrochloride], the IC50 in data set [1] is under 100 nM; in data set [2], 100 to 1000 nM; in data set [3] it was 100 to 1000 nM; in data set [4], 100 to 1000 nM. Further, the “Effect on Cell Viability, K562” value in data set [5] is “B (100-1000 nM)”.
For the compound `Cn1cc2cc(-c3ccc4cc(N5CC[C@@H](NCC6CC6)C5)cnc4n3)c(O)c(F)c2n1` [Compound 135, 5-{6-[(3R)-3-[(cyclopropylmethyl)amino]330pyrrolidine-1-yl]-1,8-naphthyridin-2-yl}-7-fluoro-2-methylindazol-6-ol], the IC50 in data set [1], in data set [2], in data set [3] and in data set [4] was under 100 nM each time. Further, the “Effect on Cell Viability, K562” value in data set [5] is reported as “A (<100 nM)”.
Turning to `Cn1cc2cc(-c3ccc4cc(N5CC[C@H](NCC6CC6)C5)cnc4n3)c(O)c(F)c2n1` [Compound 136, 5-{6-[(3S)-3-[(cyclopropylmethyl)amino]326pyrrolidine-1-yl]-1,8-naphthyridin-2-yl}-7-fluoro-2-methylindazol-6-ol], the IC50 is under 100 nM in data set [1], under 100 nM in data set [2], 100 to 1000 nM in data set [3] and 100 to 1000 nM in data set [4]. In addition, the “Effect on Cell Viability, K562” value in data set [5] was “A (<100 nM)”.
Take `Cc1c(O)c(-c2ccc3cc(N4CCNCC4)cnc3n2)cc2cn(C)nc12` [Compound 137, 2,7-dimethyl-5-[6-(piperazin-1-yl)-1,8-naphthyridin-2-yl]indazol-6-ol]: the IC50 was under 100 nM in data set [1], under 100 nM in data set [2], 100 to 1000 nM in data set [3] and 100 to 1000 nM in data set [4]. For the same compound, the “Effect on Cell Viability, K562” value in data set [5] is given as “B (100-1000 nM)”.
Consider `Cc1c(O)c(-c2ccc3cc(N4CCC(N(C)C)CC4)cnc3n2)cc2cn(C)nc12` [Compound 138, 5-{6-[4-(dimethylamino)piperidin-1-yl]-1,8-naphthyridin-2-yl}-2,7-dimethylindazol-6-ol], for which the IC50 in data set [1] was under 100 nM; in data set [2] it was under 100 nM; in data set [3], 100 to 1000 nM; in data set [4], 1000 to 10000 nM. In data set [5], the “Effect on Cell Viability, K562” value was “A (<100 nM)”.
Take `CNC1CCN(c2cnc3nc(-c4cc5cn(C)nc5c(C)c4O)cc(Cl)c3c2)C1` (stereo not drawn) [Compound 142, 5-{4-chloro-6-[3-(methylamino)351pyrrolidine-1-yl]-1,8-naphthyridin-2-yl}-2,7-dimethylindazol-6-ol]: the IC50 was under 100 nM in data set [1], under 100 nM in data set [2], under 100 nM in data set [3] and 100 to 1000 nM in data set [4]. Besides, the “Effect on Cell Viability, K562” value in data set [5] was “A (<100 nM)”.
As to `Cc1c(O)c(-c2cc(Cl)c3cc(N4CCC(N(C)C)C4)cnc3n2)cc2cn(C)nc12` (stereo not drawn) [Compound 143, 5-{4-chloro-6-[3-(dimethylamino)357pyrrolidine-1-yl]-1,8-naphthyridin-2-yl}-2,7-dimethylindazol-6-ol], the IC50 in data set [1] is under 100 nM; in data set [2] it was under 100 nM; in data set [3] it was 100 to 1000 nM; in data set [4], 100 to 1000 nM. Further, in data set [5], the “Effect on Cell Viability, K562” value is “B (100-1000 nM)”.
In the case of `Cc1c(O)c(-c2cc(Cl)c3cc(NC4CCNC4)cnc3n2)cc2cn(C)nc12` (stereo not drawn) [Compound 146, 5-[4-chloro-6-(359pyrrolidine-3-ylamino)-1,8-naphthyridin-2-yl]-2,7-dimethylindazol-6-ol], the IC50 was under 100 nM in data set [1], under 100 nM in data set [2], 100 to 1000 nM in data set [3] and 100 to 1000 nM in data set [4]. Moreover, the “Effect on Cell Viability, K562” value in data set [5] is listed as “B (100-1000 nM)”.
On to `Cc1c(O)c(-c2cc(Cl)c3cc(N4CCNC(C)C4)cnc3n2)cc2cn(C)nc12` (stereo not drawn) [Compound 147], for which the IC50 was under 100 nM in data set [1], 100 to 1000 nM in data set [2], 100 to 1000 nM in data set [3] and 1000 to 10000 nM in data set [4]. For the same compound, in data set [5], the “Effect on Cell Viability, K562” value is listed as “B (100-1000 nM)”.

Source of the values: patent US20250326748A1, “COMPOUNDS AND METHODS FOR MODULATING SPLICING” (REMIX THERAPEUTICS INC., priority 2022, published 2025).
